# Assay results taken from ChEMBL document CHEMBL4419169, “Novel Ferroportin Inhibitors” (2018).
# Calls of active or inactive are those of the source. The calls are words filed in the database; no cut-off is given here.
# What was measured:
# [1] = target: T1, Ferroportin (Mus musculus) (UniProt Q9JHI9); test: Inhibition of ferroportin in mouse J774 cells assessed as induce ferroportin ubiquitination and degradation at 1.5 uM incubated for 10 mins by immunoprecipitation assay; format: cell-based
# T1 sequence (whole entry): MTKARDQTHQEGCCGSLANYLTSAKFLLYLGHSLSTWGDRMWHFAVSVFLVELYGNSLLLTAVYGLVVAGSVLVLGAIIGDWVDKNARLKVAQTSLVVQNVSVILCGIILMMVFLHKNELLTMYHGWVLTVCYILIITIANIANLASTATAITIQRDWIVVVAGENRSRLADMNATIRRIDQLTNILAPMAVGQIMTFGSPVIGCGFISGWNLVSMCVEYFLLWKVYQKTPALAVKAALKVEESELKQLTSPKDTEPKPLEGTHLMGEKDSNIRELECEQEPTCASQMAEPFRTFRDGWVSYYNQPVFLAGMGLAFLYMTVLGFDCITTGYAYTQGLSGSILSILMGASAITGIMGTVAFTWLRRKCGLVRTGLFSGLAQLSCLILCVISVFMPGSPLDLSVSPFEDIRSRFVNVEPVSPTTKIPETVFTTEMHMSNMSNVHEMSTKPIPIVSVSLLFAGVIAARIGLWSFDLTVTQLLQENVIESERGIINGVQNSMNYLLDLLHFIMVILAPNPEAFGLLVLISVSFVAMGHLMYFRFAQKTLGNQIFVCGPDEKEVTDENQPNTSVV
# [2] = target: T1, Ferroportin (Mus musculus); test: Inhibition of ferroportin in mouse J774 cells assessed as induce ferroportin ubiquitination and degradation at 1.5 uM incubated for 120 mins by immunoprecipitation assay; format: cell-based
# [3] = target: T1, Ferroportin (Mus musculus); test: Inhibition of ferroportin in mouse J774 cells assessed as induce ferroportin ubiquitination and degradation at 0.8 uM incubated for 10 mins by immunoprecipitation assay; format: cell-based
# [4] = target: T1, Ferroportin (Mus musculus); test: Inhibition of ferroportin in mouse J774 cells assessed as induce ferroportin ubiquitination and degradation at 0.8 uM incubated for 120 mins by immunoprecipitation assay; format: cell-based
# [5] = tested on: Rattus norvegicus; test: Prevention of iron absorption in orally dosed anemic Wistar rat model of iron absorption assessed as inhibition of increase in serum iron pre-dosed 1 hr before ferrous sulfate dosing and measured 3 hours after iron dosing; format: functional, organism-based
# [6] = target: T1, Ferroportin (Mus musculus); test: Inhibition of ferroportin in mouse J774 cells assessed as induce ferroportin ubiquitination and degradation at 0.1 uM incubated for 10 mins by immunoprecipitation assay; format: cell-based
# [7] = target: T1, Ferroportin (Mus musculus); test: Inhibition of ferroportin in mouse J774 cells assessed as induce ferroportin ubiquitination and degradation at 0.1 uM incubated for 120 mins by immunoprecipitation assay; format: cell-based
# [8] = tested on: Mus musculus; test: Prevention of hyperferremia in iron overloaded beta2-microglobulin deficient female mouse assessed as reduction in serum iron level at 60 mg/kg, po measured after 3 hrs relative to control; format: functional; set-up: scale not given: the % may be the effect or the level left
# [9] = tested on: Mus musculus; test: Prevention of hyperferremia in iron overloaded beta2-microglobulin deficient male mouse assessed as reduction in serum iron level at 60 mg/kg, po measured after 3 hrs relative to control; format: functional; set-up: scale not given: the % may be the effect or the level left
# [10] = tested on: Mus musculus; test: Disease modifying capacity in mouse model of transfusion-independent beta-thalassemia intermedia assessed as decrease in bone marrow ROS levels level at 60 mg/kg, po BID for 27 days relative to control; format: functional; set-up: scale not given: the % may be the effect or the level left
# [11] = target: T1, Ferroportin (Mus musculus); test: Inhibition of ferroportin in mouse J774 cells assessed as induce ferroportin ubiquitination and degradation at 0.5 uM incubated for 10 mins by immunoprecipitation assay; format: cell-based
# [12] = target: T1, Ferroportin (Mus musculus); test: Inhibition of ferroportin in mouse J774 cells assessed as induce ferroportin ubiquitination and degradation at 0.5 uM incubated for 120 mins by immunoprecipitation assay; format: cell-based
# [13] = target: T1, Ferroportin (Mus musculus); test: Inhibition of ferroportin in mouse J774 cells assessed as induce ferroportin ubiquitination and degradation at 0.3 uM incubated for 10 mins by immunoprecipitation assay; format: cell-based
# [14] = target: T1, Ferroportin (Mus musculus); test: Inhibition of ferroportin in mouse J774 cells assessed as induce ferroportin ubiquitination and degradation at 0.3 uM incubated for 120 mins by immunoprecipitation assay; format: cell-based
# [15] = tested on: Mus musculus; test: Induction of hypoferremia in orally dosed wild type C57BL/6 mouse assessed as decrease in serum iron levels measured after 3 hrs post dose; format: functional, organism-based
# [16] = tested on: Mus musculus; test: Prevention of hyperferremia in iron overloaded beta2-microglobulin deficient mouse assessed as reduction in serum iron level at 50 mg/kg, po measured after 3 hrs relative to control; format: functional, organism-based
structure (smiles),measurement,setting,value
O=C(NCc1ncccc1F)c1cnn(C2CN(CCc3nc4ccccc4[nH]3)C2)c1,inhibition,[1],Active
same,inhibition,[2],Active
O=C(NCc1ncccc1F)c1coc(CCNCc2nc3ccccc3[nH]2)n1,inhibition,[3],Active
same,inhibition,[4],Active
Cc1cccnc1CNC(=O)c1csc(CCNCc2nc3ccccc3[nH]2)n1,Activity,[5],Dose-dependent effect
Cl.Cl.Cl.O=C(NCc1ncccc1F)c1coc(CCNCCc2nc3ccccc3[nH]2)n1 [VAMIFEPORT HYDROCHLORIDE],inhibition,[6],Active
same,inhibition,[7],Active
same,Activity,[8],74%
same,Activity,[9],83%
same,Activity,[10],75%
O=C(NCc1ncccc1F)c1coc(CCNCCc2nc3c(Cl)cccc3[nH]2)n1,inhibition,[11],Active
same,inhibition,[12],Active
O=C(NCc1ncccc1F)c1csc(CCNCCc2nc3ccccc3[nH]2)n1,inhibition,[13],Active
same,inhibition,[14],Active
same,Activity,[15],Dose-dependent effect
same,Activity,[16],Active
